The record followed here is patent US20100311714A1, “1H-IMIDAZO[4,5-c]QUINOLINONE COMPOUNDS” (priority 2009, published 2010).

Like-named read-outs stand apart in the source and are kept apart here. A value given as a limit tells only on which side of the number the result lay.

The target in one experiment is T1, PI3K delta (Homo sapiens, UniProt O00329).
T1 construct: for the full-length p110-d subunit are generated and fused by overlapping PCR; His tag (C); made in house; host or cells: baculovirus BV1060; Tn5 (Trichoplusia ni) or TiniPro insect cells
T1 sequence (O00329 with tags, fused parts or gaps limits assumed): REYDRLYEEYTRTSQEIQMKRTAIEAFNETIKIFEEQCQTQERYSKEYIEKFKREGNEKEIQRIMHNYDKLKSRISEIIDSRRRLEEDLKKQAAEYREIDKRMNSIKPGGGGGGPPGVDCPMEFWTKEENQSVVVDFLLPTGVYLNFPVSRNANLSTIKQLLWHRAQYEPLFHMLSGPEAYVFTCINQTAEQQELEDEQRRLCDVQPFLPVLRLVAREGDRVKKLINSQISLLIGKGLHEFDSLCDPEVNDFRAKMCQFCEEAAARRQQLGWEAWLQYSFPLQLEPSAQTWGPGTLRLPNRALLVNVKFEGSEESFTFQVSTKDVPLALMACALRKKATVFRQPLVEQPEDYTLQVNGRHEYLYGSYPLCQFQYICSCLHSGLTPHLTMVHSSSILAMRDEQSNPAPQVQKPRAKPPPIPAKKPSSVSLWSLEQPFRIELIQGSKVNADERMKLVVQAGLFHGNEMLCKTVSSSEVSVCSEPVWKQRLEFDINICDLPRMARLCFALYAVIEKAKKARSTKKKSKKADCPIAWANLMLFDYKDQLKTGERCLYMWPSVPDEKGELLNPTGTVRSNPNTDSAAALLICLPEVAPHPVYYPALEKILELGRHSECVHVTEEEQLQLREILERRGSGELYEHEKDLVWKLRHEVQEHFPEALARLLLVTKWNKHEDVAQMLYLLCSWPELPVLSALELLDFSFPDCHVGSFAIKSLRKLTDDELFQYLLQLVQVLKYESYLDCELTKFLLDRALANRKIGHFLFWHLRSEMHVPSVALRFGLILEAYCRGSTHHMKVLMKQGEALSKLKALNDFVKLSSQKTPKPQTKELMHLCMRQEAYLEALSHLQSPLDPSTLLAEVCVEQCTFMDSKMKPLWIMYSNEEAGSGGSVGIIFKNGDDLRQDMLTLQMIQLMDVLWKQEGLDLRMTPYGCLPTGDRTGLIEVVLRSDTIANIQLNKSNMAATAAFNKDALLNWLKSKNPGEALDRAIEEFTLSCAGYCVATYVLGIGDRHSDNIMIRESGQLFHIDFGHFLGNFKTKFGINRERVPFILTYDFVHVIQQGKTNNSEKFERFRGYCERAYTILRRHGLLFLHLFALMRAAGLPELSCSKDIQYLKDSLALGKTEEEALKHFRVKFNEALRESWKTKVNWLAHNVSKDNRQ
The experiment can be described thus: PI3K delta kinase assay (Kinase-Glo luminescence). Format: biochemical. A digest of the protocol: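 IC50s derive from 8-point inhibition curves fitted to a 4-parameter logistic model. Reaction: 10 nM purified p110δ/p85 iSH2 fusion, 1 μM ATP, 10 μg/mL PI substrate, pH 7.5 Tris buffer with MgCl2, NaCl, CHAPS and DTT, run 60 min at room temperature; remaining ATP read by Kinase-Glo luminescence.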
(In general: In Kinase-Glo more light means more ATP remaining.)

Another experiment has as its target T2, PI3K alfa (Homo sapiens, UniProt P42336).
T2 construct: His tag (C); made in house; host or cells: baculovirus BV1075; Tn5 (Trichoplusia ni) or TiniPro insect cells
The experiment can be described thus: PI3K alpha kinase assay (Kinase-Glo luminescence). Format: biochemical. A digest of the protocol:
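IC50 values come from a four-parameter logistic fit of percent inhibition at eight concentrations, typically 10 to 0.003 μM. Recombinant PI3Kα at 10 nM turned over 1 μM ATP with 10 μg/mL PI for 60 min at room temperature, and residual ATP was measured by Kinase-Glo.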

T2 sequence (P42336 with tags, fused parts or gaps limits assumed): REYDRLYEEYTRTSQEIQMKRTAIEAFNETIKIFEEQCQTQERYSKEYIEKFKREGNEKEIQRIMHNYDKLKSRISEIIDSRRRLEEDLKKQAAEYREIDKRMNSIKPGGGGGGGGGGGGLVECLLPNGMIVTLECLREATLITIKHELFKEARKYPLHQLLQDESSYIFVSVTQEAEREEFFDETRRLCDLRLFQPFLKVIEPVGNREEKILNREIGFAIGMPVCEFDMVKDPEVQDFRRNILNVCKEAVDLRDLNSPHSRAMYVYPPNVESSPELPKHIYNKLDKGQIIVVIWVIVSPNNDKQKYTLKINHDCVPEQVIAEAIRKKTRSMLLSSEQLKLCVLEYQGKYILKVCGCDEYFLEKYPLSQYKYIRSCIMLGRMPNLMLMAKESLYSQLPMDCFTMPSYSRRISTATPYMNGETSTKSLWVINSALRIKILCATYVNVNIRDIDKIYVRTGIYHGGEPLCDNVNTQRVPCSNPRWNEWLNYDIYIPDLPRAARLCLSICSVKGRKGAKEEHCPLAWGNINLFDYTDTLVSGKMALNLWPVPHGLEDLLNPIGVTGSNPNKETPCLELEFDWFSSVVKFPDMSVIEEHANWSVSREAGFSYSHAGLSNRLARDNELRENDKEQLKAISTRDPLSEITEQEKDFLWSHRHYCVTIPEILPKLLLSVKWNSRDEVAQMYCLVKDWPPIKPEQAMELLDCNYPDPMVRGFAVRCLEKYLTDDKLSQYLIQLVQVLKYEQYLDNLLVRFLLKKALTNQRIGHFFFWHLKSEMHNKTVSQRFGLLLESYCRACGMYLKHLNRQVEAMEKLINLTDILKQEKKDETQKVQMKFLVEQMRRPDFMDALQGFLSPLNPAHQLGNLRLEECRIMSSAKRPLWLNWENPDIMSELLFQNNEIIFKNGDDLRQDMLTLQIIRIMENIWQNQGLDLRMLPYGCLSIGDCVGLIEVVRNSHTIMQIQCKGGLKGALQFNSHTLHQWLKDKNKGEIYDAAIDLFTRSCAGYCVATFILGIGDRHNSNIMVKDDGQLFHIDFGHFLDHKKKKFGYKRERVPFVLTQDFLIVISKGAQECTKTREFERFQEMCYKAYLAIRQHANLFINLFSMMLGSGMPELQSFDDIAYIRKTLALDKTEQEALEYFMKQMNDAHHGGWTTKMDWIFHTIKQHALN

Turning to `Cc1nc(F)ccc1-n1c(=O)n(C)c2cnc3ccc(-c4cncc(N)c4)cc3c21` [Example 7.16, 8-(5-Amino-pyridin-3-yl)-1-(6-fluoro-2-methyl-pyridin-3-yl)-3-methyl-1,3-dihydro-imidazo[4,5-c]quinolin-2-one], the values for the IC50 on PI3K delta (read-out: EPK_PI3Kdelta/IC50) and at PI3K alfa (read-out: EPK_PI3Kalfa/IC50) were 56.5 nM and 101 nM, respectively.
With `Cc1nc(F)ccc1-n1c(=O)n(C)c2cnc3ccc(-c4cnc(N)c(CO)c4)cc3c21` [Example 7.17, 8-(6-Amino-5-hydroxymethyl-pyridin-3-yl)-1-(6-fluoro-2-methyl-pyridin-3-yl)-3-methyl-1,3-dihydro-imidazo[4,5-c]quinolin-2-one], the IC50 on PI3K delta (read-out: EPK_PI3Kdelta/IC50) stood at 20 nM; on PI3K alfa (read-out: EPK_PI3Kalfa/IC50) it was 64 nM.
In the case of `COc1ccc(-n2c(=O)n(C)c3cnc4ccc(-c5cnc(N)c(C(F)(F)F)c5)cc4c32)c(OC)n1` [Example 8.1, 8-(6-Amino-5-trifluoromethyl-pyridin-3-yl)-1-(2,6-dimethoxy-pyridin-3-yl)-3-methyl-1,3-dihydro-imidazo[4,5-c]quinolin-2-one], the figures for the IC50 at PI3K delta (read-out: PI3Kdelta/IC50) and on PI3K alfa (read-out: PI3Kalfa/IC50) were 12 nM and 11 nM, respectively.
As for `COCCOc1cc(-c2ccc3ncc4c(c3c2)n(-c2ccc(OC)nc2OC)c(=O)n4C)cnc1C` [Example 8.9, 1-(2,6-Dimethoxy-pyridin-3-yl)-8-[5-(2-methoxy-ethoxy)-6-methyl-pyridin-3-yl]-3-methyl-1,3-dihydro-imidazo[4,5-c]quinolin-2-one], the IC50 at PI3K delta (read-out: EPK_PI3Kdelta/IC50) is 14 nM; on PI3K alfa (read-out: EPK_PI3Kalfa/IC50) it was 11 nM.
On to `COc1ccc(-n2c(=O)n(C)c3cnc4ccc(-c5ccc6nccn6c5)cc4c32)c(OC)n1` [Example 8.10, 1-(2,6-Dimethoxy-pyridin-3-yl)-8-imidazo[1,2-a]pyridin-6-yl-3-methyl-1,3-dihydro-imidazo[4,5-c]quinolin-2-one], for which the IC50 at PI3K delta (read-out: EPK_PI3Kdelta/IC50) came to 192 nM; at PI3K alfa (read-out: EPK_PI3Kalfa/IC50), 80 nM.
Regarding `COCc1ncc(-c2ccc3ncc4c(c3c2)n(-c2ccc(OC)nc2OC)c(=O)n4C)cc1OC` [Example 8.12, 1-(2,6-Dimethoxy-pyridin-3-yl)-8-(5-methoxy-6-methoxymethyl-pyridin-3-yl)-3-methyl-1,3-dihydro-imidazo[4,5-c]quinolin-2-one], the IC50 is 42 nM at PI3K delta (read-out: EPK_PI3Kdelta/IC50) and 41 nM at PI3K alfa (read-out: EPK_PI3Kalfa/IC50).
On to `COc1nc(N2CCNCC2)ccc1-n1c(=O)n(C)c2cnc3ccc(-c4cnc(N(C)C)nc4)cc3c21` [Example 9.4, 8-(2-Dimethylamino-pyrimidin-5-yl)-1-(2-methoxy-6-piperazin-1-yl-pyridin-3-yl)-3-methyl-1,3-dihydro-imidazo[4,5-c]quinolin-2-one], for which the IC50 on PI3K delta (read-out: EPK_PI3Kdelta/IC50) stood at 17 nM; at PI3K alfa (read-out: EPK_PI3Kalfa/IC50), 15 nM.
As to `CCNc1cc(-c2ccc3ncc4c(c3c2)n(-c2ccc(OC)nc2C)c(=O)n4C)cnc1C` [Example 11.7, 8-(5-Ethylamino-6-methyl-pyridin-3-yl)-1-(6-methoxy-2-methyl-pyridin-3-yl)-3-methyl-1,3-dihydro-imidazo[4,5-c]quinolin-2-one], the IC50 at PI3K delta (read-out: EPK_PI3Kdelta/IC50) is 3 nM; at PI3K alfa (read-out: EPK_PI3Kalfa/IC50), < 3 nM.
The matching figures for `COc1ccc(-n2c(=O)n(C)c3cnc4ccc(-c5cnc(CO)c(OC)c5)cc4c32)c(C)n1` [Example 11.8, 8-(6-Hydroxymethyl-5-methoxy-pyridin-3-yl)-1-(6-methoxy-2-methyl-pyridin-3-yl)-3-methyl-1,3-dihydro-imidazo[4,5-c]quinolin-2-one]: < 3 nM and 16 nM.
On to `CCN(C)c1ccc(-n2c(=O)n(C)c3cnc4ccc(-c5ccc(NC)nc5)cc4c32)c(C)n1` [Example 12.1, 1-[6-(Ethyl-methyl-amino)-2-methyl-pyridin-3-yl]-3-methyl-8-(6-methylamino-pyridin-3-yl)-1,3-dihydro-imidazo[4,5-c]quinolin-2-one], for which the IC50 amounted to 15 nM on PI3K delta (read-out: EPK_PI3Kdelta/IC50) and 36 nM on PI3K alfa (read-out: EPK_PI3Kalfa/IC50).
As to `CCNc1cc(-c2ccc3ncc4c(c3c2)n(-c2ccc(N(C)CC)nc2C)c(=O)n4C)cnc1C` [Example 12.2, 8-(5-Ethylamino-6-methyl-pyridin-3-yl)-1-[6-(ethyl-methyl-amino)-2-methyl-pyridin-3-yl]-3-methyl-1,3-dihydro-imidazo[4,5-c]quinolin-2-one], the results for the IC50 on PI3K delta (read-out: EPK_PI3Kdelta/IC50) and at PI3K alfa (read-out: EPK_PI3Kalfa/IC50) were 13 nM and 15 nM, respectively.
On to `CCOc1ccc(-c2ccc3ncc4c(c3c2)n(-c2ccc(OCCOC)nc2C)c(=O)n4C)cn1` [Example 13.1, 8-(6-Ethoxy-pyridin-3-yl)-1-[6-(2-methoxy-ethoxy)-2-methyl-pyridin-3-yl]-3-methyl-1,3-dihydro-imidazo[4,5-c]quinolin-2-one], for which the IC50 on PI3K delta (read-out: EPK_PI3Kdelta/IC50) amounted to 742 nM; at PI3K alfa (read-out: EPK_PI3Kalfa/IC50), 158 nM.
As for `COCCOc1ccc(-n2c(=O)n(C)c3cnc4ccc(-c5cnc(N)c(C(F)(F)F)c5)cc4c32)c(C)n1` [Example 13.2, 8-(6-Amino-5-trifluoromethyl-pyridin-3-yl)-1-[6-(2-methoxy-ethoxy)-2-methyl-pyridin-3-yl]-3-methyl-1,3-dihydro-imidazo[4,5-c]quinolin-2-one], the IC50 on PI3K delta (read-out: EPK_PI3Kdelta/IC50) amounted to 14 nM; at PI3K alfa (read-out: EPK_PI3Kalfa/IC50), 36 nM.
As for `CNc1ccc(-c2ccc3ncc4c(c3c2)n(-c2ccc(OCCOC)nc2C)c(=O)n4C)cn1` [Example 13.3, 1-[6-(2-Methoxy-ethoxy)-2-methyl-pyridin-3-yl]-3-methyl-8-(6-methylamino-pyridin-3-yl)-1,3-dihydro-imidazo[4,5-c]quinolin-2-one], the IC50 on PI3K delta (read-out: EPK_PI3Kdelta/IC50) stood at 26 nM; on PI3K alfa (read-out: EPK_PI3Kalfa/IC50), 31 nM.
Consider `CCNc1cc(-c2ccc3ncc4c(c3c2)n(-c2ccc(OCCOC)nc2C)c(=O)n4C)cnc1C` [Example 13.4, 8-(5-Ethylamino-6-methyl-pyridin-3-yl)-1-[6-(2-methoxy-ethoxy)-2-methyl-pyridin-3-yl]-3-methyl-1,3-dihydro-imidazo[4,5-c]quinolin-2-one], for which the IC50 on PI3K delta (read-out: EPK_PI3Kdelta/IC50) is 15 nM; on PI3K alfa (read-out: EPK_PI3Kalfa/IC50), 13 nM.
As for `CNc1ncc(-c2ccc3ncc4c(c3c2)n(-c2ccc(OCCOC)nc2C)c(=O)n4C)cn1` [Example 13.5, 1-[6-(2-Methoxy-ethoxy)-2-methyl-pyridin-3-yl]-3-methyl-8-(2-methylamino-pyrimidin-5-yl)-1,3-dihydro-imidazo[4,5-c]quinolin-2-one], the IC50 at PI3K delta (read-out: EPK_PI3Kdelta/IC50) came out at 60 nM; at PI3K alfa (read-out: EPK_PI3Kalfa/IC50) it was 43 nM.
As to `CCOc1ccc(-c2ccc3ncc4c(c3c2)n(-c2ccc(C)nc2C)c(=O)n4C)cn1` [Example 14.2, 1-(2,6-Dimethyl-pyridin-3-yl)-8-(6-ethoxy-pyridin-3-yl)-3-methyl-1,3-dihydro-imidazo[4,5-c]quinolin-2-one], the IC50 at PI3K delta (read-out: EPK_PI3Kdelta/IC50) stood at 30 nM; on PI3K alfa (read-out: EPK_PI3Kalfa/IC50) it was 43 nM.
Take `Cc1ccc(-n2c(=O)n(C)c3cnc4ccc(-c5cnc(N(C)C)nc5)cc4c32)c(C)n1` [Example 14.3, 8-(2-Dimethylamino-pyrimidin-5-yl)-1-(2,6-dimethyl-pyridin-3-yl)-3-methyl-1,3-dihydro-imidazo[4,5-c]quinolin-2-one]: the figures for the IC50 on PI3K delta (read-out: EPK_PI3Kdelta/IC50) and on PI3K alfa (read-out: EPK_PI3Kalfa/IC50) were 49 nM and 140 nM, respectively.
Take `CNc1ncc(-c2ccc3ncc4c(c3c2)n(-c2ccc(C)nc2C)c(=O)n4C)cn1` [Example 14.4, 1-(2,6-Dimethyl-pyridin-3-yl)-3-methyl-8-(2-methylamino-pyrimidin-5-yl)-1,3-dihydro-imidazo[4,5-c]quinolin-2-one]: the IC50 on PI3K delta (read-out: EPK_PI3Kdelta/IC50) is 44 nM; on PI3K alfa (read-out: EPK_PI3Kalfa/IC50), 30 nM.
Turning to `Cc1ccc(-n2c(=O)n(C)c3cnc4ccc(-c5cnc(N)c(C(F)(F)F)c5)cc4c32)c(C)n1` [Example 14.5, 8-(6-Amino-5-trifluoromethyl-pyridin-3-yl)-1-(2,6-dimethyl-pyridin-3-yl)-3-methyl-1,3-dihydro-imidazo[4,5-c]quinolin-2-one], the IC50 at PI3K delta (read-out: EPK_PI3Kdelta/IC50) was determined as 7 nM; on PI3K alfa (read-out: EPK_PI3Kalfa/IC50), 5 nM.
On to `CCNc1cc(-c2ccc3ncc4c(c3c2)n(-c2ccc(C)nc2C)c(=O)n4C)cnc1C` [Example 14.6, 1-(2,6-Dimethyl-pyridin-3-yl)-8-(5-ethylamino-6-methyl-pyridin-3-yl)-3-methyl-1,3-dihydro-imidazo[4,5-c]quinolin-2-one], for which the IC50 at PI3K delta (read-out: EPK_PI3Kdelta/IC50) came to 20 nM; at PI3K alfa (read-out: EPK_PI3Kalfa/IC50) it was 19 nM.
For `Cc1ccc(-n2c(=O)n(C)c3cnc4ccc(-c5cnc6c(ccn6C)c5)cc4c32)c(C)n1` [Example 14.7, 1-(2,6-Dimethyl-pyridin-3-yl)-3-methyl-8-(1-methyl-1H-pyrrolo[2,3-b]pyridin-5-yl)-1,3-dihydro-imidazo[4,5-c]quinolin-2-one], the values for the IC50 at PI3K delta (read-out: EPK_PI3Kdelta/IC50) and on PI3K alfa (read-out: EPK_PI3Kalfa/IC50) were 28 nM and 16 nM, respectively.
Regarding `Cc1ccc(-n2c(=O)n(C)c3cnc4ccc(-c5cncc(NC(C)C)c5)cc4c32)c(C)n1` [Example 14.8, 1-(2,6-Dimethyl-pyridin-3-yl)-8-(5-isopropylamino-pyridin-3-yl)-3-methyl-1,3-dihydro-imidazo[4,5-c]quinolin-2-one], the values for the IC50 on PI3K delta (read-out: EPK_PI3Kdelta/IC50) and on PI3K alfa (read-out: EPK_PI3Kalfa/IC50) were 46 nM and 37 nM, respectively.
On the same counts, the results for `COCCN(C)c1ccc(-n2c(=O)n(C)c3cnc4ccc(-c5cnc(N)c(C(F)(F)F)c5)cc4c32)c(C)n1` [Example 15.1, 8-(6-Amino-5-trifluoromethyl-pyridin-3-yl)-1-{6-[(2-methoxy-ethyl)-methyl-amino]-2-methyl-pyridin-3-yl}-3-methyl-1,3-dihydro-imidazo[4,5-c]quinolin-2-one] are 7 nM and 7 nM.
